Assay results as given in publication PMC11643744, “New Conjugates of Vancomycin with Cell-Penetrating Peptides—Synthesis, Antimicrobial Activity, Cytotoxicity, and BBB Permeability Studies” (Molecules, 2024).
Values after ≈ are worked out from the molar mass of the structure shown. Values joined by “and” are separate entries in the source; they are usually repeats but may differ in a detail not shown here. Equal values may be shown once. Read-outs that look alike come from different tables or passages of the source.

Experiments:
[1] = system: S. aureus ATCC 29213; test: microbe, parasite or virus in culture; format: cell-based, Staphylococcus aureus; conditions: reference strain, read-out: MIC S. aureus ATCC 29213
Procedure: (§1) The antimicrobial activity of the synthesized compounds was evaluated against four reference bacterial strains: Staphylococcus aureus (ATCC 29213), Enterococcus faecalis (ATCC 29212), Escherichia coli (ATCC 25922), and Pseudomonas aeruginosa (ATCC 27853), which are commonly used for determining antibacterial activity. In addition, two clinical strains, S. aureus (MRSA) and E. faecium (VRE), were included in the study. The bacterial strains were inoculated from Selectrol discs (Biomaxima SA, Lublin, Poland) onto blood agar (Graso Biotech, Starogard Gdański, Poland) and incubated at 37 °C for 24 h. Before testing, the strains were cultured aerobically on blood agar at 37 °C for 24 h.
(§2) The susceptibility of microorganisms to the synthesized compounds was determined using the broth microdilution assay, following the guidelines outlined by CLSI [30]. The final concentrations of the tested compounds in Mueller–Hinton broth, in 96-well plates (VWR International Sp. z o.o., Gdańsk, Poland), ranged from 0.125 to 256 mg/L. To prepare the bacterial suspension, bacteria from the overnight culture on blood agar were diluted in sterile 0.9% NaCl to achieve a turbidity equivalent to a 0.5 McFarland standard. The adjusted inoculum suspension was further diluted in Mueller–Hinton broth so that after inoculation, each well contained approximately 5 × 10^5 CFU/mL. Aliquots (5 µL) of bacterial suspension were added to each solution. The sterility control (containing the broth) and the growth control (containing the reference strain in broth without the tested compound) were also set up. The antibiotics vancomycin and gentamicin were used as a control. The plates were incubated at 37 °C under aerobic conditions. The results are expressed as the MIC of the tested compounds, which was defined as the lowest concentration at which no visible growth of bacteria (no turbidity) was observed. The assay was performed in triplicate.

[2] = system: S. aureus MRSA (clinical isolate no 203); test: microbe, parasite or virus in culture; format: cell-based, Staphylococcus aureus; conditions: methicillin-resistant clinical isolate no 203, read-out: MIC S. aureus MRSA
Procedure: as §1, §2

[3] = system: E. faecalis ATCC 29212; test: microbe, parasite or virus in culture; format: cell-based, Enterococcus faecalis; conditions: reference strain, read-out: MIC E. faecalis ATCC 29212
Procedure: as §1, §2

[4] = system: E. faecium VRE (clinical isolate UCK 7979384); test: microbe, parasite or virus in culture; format: cell-based; conditions: vancomycin-resistant clinical isolate UCK 7979384, read-out: MIC E. faecium VRE
Procedure: as §1, §2

[5] = system: E. coli ATCC 25922; test: microbe, parasite or virus in culture; format: cell-based, Escherichia coli; conditions: reference strain
Procedure: as §1, §2

[6] = PAMPA-BBB assay; conditions: 20 h incubation, mean ± SEM
Description: This assay utilized a 96-well plate assembly consisting of a filter plate pre-coated with polar brain lipids (donor plate) and a receiver plate (acceptor plate). The phospholipid mixture used to coat the membrane was extracted from porcine polar brain lipids, with the following composition: 12.6% phosphatidylcholine, 33.1% phosphatidylethanolamine, 18.5% phosphatidylserine, 4.1% phosphatidylinositol, 0.8% phosphatidic acid, and 30.9% of other compounds, including cerebrosides, sulfatides, and pigments.
In each well of the donor filtration plate (Multiscreen Filter Plate, PVDF with a pore size of 0.45 µm), 5 µL of the phospholipid mixture in n-dodecane (20 mg/mL) was carefully applied to form the artificial membrane. After coating, 200 µL of phosphate-buffered saline (PBS at pH 7.4) containing 5% dimethyl sulfoxide (DMSO) as a co-solvent, and the test compound (at a concentration of 20 µM) was added to each well of the donor plate (in triplicate). […] The plate lid was then replaced and the resulting assembled donor–acceptor plates were incubated at room temperature for 20 h. After this time, the donor plate was removed and solutions from each well of both acceptor and donor plates were collected for further analysis. The concentrations of the tested compounds were determined by LC-MS. The analysis was conducted by UHPLC-MS system (Shimadzu Nexera X2 with LCMS-2020 detector) using a ReproSil Pure 120 ODS-3 column (Dr. Maisch GmbH, 100 × 2 mm, 2.4 µm particle size) with several gradients of ACN with 0.1% FA and 0.05% TFA at a flow rate of 0.3 mL/min. The eluted solution was monitored by an ESI-MS detector operated in a selected ion monitoring mode (SIM). […] CE=CD×VD+CA×VA/VD+VA

[7] = system: Pseudomonas aeruginosa (ATCC 27853); test: Broth microdilution MIC, P. aeruginosa reference strain; format: cell-based; conditions: Pseudomonas aeruginosa, ATCC27853; reference strain
Procedure: as §1
The susceptibility of microorganisms to the synthesized compounds was determined using the broth microdilution assay, following the guidelines outlined by CLSI [30]. The final concentrations of the tested compounds in Mueller–Hinton broth, in 96-well plates (VWR International Sp. z o.o., Gdańsk, Poland), ranged from 0.125 to 256 mg/L. To prepare the bacterial suspension, bacteria from the overnight culture on blood agar were diluted in sterile 0.9% NaCl to achieve a turbidity equivalent to a 0.5 McFarland standard. […] The results are expressed as the MIC of the tested compounds, which was defined as the lowest concentration at which no visible growth of bacteria (no turbidity) was observed. […]

[8] = system: normal human fibroblasts, BJ line (CRL-2522); test: Neutral red cytotoxicity assay; conditions: across the tested concentration range, 24 h
Procedure: Normal human fibroblasts, BJ line (CRL-2522™), Eagle’s Minimum Essential Medium (EMEM), and fetal bovine serum (FBS) were obtained from ATCC (Manassas, VA, USA). Cells were grown following ATCC guidelines in an EMEM medium supplemented with 10% FBS at 37 °C in a humidified atmosphere of 95% air and 5% CO2 in a HeraCell 150 incubator (Heraeus, Hanau, Germany).
The assay was performed as per previously published protocols with slight modifications. In brief, BJ cells were plated in 96-well tissue culture plates (Nest Scientific Biotechnology, Wuxi, China) at a density of 6 × 10^3 cells per well and allowed to attach for 24 h in EMEM supplemented with 10% FBS. After the incubation period, the medium was removed, and 10% dimethyl sulfoxide (DMSO)-treated cells (Sigma-Aldrich, St. Louis, MO, USA) were used as a positive control, while nontreated cells served as a negative control.
The cells were treated with peptides suspended in EMEM medium supplemented with 10% FBS and incubated for 24 h at 37 °C in a humidified atmosphere of 95% air and 5% CO2. After the incubation, the supernatants were discarded and replaced with 100 µL of non-supplemented EMEM containing 0.33% neutral red (Sigma-Aldrich) diluted 1:40. The cells were incubated for an additional 2 h at 37 °C. Following incubation, the neutral red medium was removed, and the cells were washed with 100 µL of phosphate-buffered saline (PBS) per well.
To extract the dye into the solution, the cells were treated with 150 µL of a solution containing 50% ethanol (Alchem, Torun, Poland), 49% distilled H2O, and 1% acetic acid (Alchem, Torun, Poland) and incubated under shaking at 37 °C for 10 min. Absorbance was measured at 540 nm using a Synergy H1 plate reader (BioTek Instruments, Winooski, VT, USA). The assay was performed in triplicate to ensure reproducibility.

Row | Compound | MIC [1] [µM] | MIC [2] [µM] | MIC [3] [µM] | MIC [4] [µM] | MIC [5] [µM] | R, mass retention [6] [%] | MIC ([1]; Staphylococcus aureus, ATCC29213) | MIC ([2]; Staphylococcus aureus) | MIC ([3]; Enterococcus faecalis, ATCC29212) | MIC ([4]; Enterococcus faecium, VRE) | MIC ([5]; Escherichia coli, ATCC25922) | MIC [7] [µM] | effect on cell viability [8]
1 | C#CC(=O)N[C@@H](CCCNC(=N)N)C(=O)N[C@@H](CCCNC(=N)N)C(=O)N[C@@H](CCCNC(=N)N)C(=O)N[C@@H](CCCNC(=N)N)C(=O)N[C@@H](CCCNC(=N)N)C(=O)N[C@@H](CCCNC(=N)N)C(=O)N[C@@H](CCCNC(=N)N)C(=O)N[C@@H](CCCNC(=N)N)C(=O)N[C@@H](CCCNC(=N)N)C(N)=O [compound 14] | 21.7 (≈ 32 µg/mL) | 2.71 (≈ 4 µg/mL) | 87 (≈ 128 µg/mL) | 21.7 (≈ 32 µg/mL) | 43 (≈ 63.4 µg/mL) | 8.0 ± 1.2 |  |  |  |  |  |  | 
2 | CNC(C)C1CCC(N)C(OC2C(N)CC(N)C(OC3OCC(C)(O)C(NC)C3O)C2O)O1 (stereo not shown) [Gentamicin] |  |  |  |  |  |  | 0.24 µg/mL and 0.5 µM | 0.48 µg/mL and 1 µM | 7.8 µg/mL and 16.3 µM | 7.8 µg/mL and 16.3 µM | 1.95 µg/mL and 4.08 µM | 4.08 (≈ 1.95 µg/mL) | 
3 | C#CC(=O)N[C@@H](Cc1ccc(O)cc1)C(=O)NCC(=O)N[C@@H](CCCNC(=N)N)C(=O)N[C@@H](CCCCN)C(=O)N[C@@H](CCCCN)C(=O)N[C@@H](CCCNC(=N)N)C(=O)N[C@@H](CCCNC(=N)N)C(=O)N[C@@H](CCC(N)=O)C(=O)N[C@@H](CCCNC(=N)N)C(=O)N[C@@H](CCCNC(=N)N)C(=O)N[C@@H](CCCNC(=N)N)C(N)=O [compound 4] | 4.97 (≈ 8.01 µg/mL) | 19.9 (≈ 32.1 µg/mL) | 159 (≈ 256 µg/mL) | 19.9 (≈ 32.1 µg/mL) | 79.5 (≈ 128 µg/mL) | 3.3 ± 0.7 |  |  |  |  |  |  | did not significantly affect cell viability
